The source of these data is patent US20070020684A1, “Structure of a glucocorticoid receptor ligand binding domain comprising an expanded binding pocket and methods employing same” (priority 2002, published 2007).

One assay deals with T1, PR (Homo sapiens, UniProt P06401).
T1 sequence (P06401 1-933): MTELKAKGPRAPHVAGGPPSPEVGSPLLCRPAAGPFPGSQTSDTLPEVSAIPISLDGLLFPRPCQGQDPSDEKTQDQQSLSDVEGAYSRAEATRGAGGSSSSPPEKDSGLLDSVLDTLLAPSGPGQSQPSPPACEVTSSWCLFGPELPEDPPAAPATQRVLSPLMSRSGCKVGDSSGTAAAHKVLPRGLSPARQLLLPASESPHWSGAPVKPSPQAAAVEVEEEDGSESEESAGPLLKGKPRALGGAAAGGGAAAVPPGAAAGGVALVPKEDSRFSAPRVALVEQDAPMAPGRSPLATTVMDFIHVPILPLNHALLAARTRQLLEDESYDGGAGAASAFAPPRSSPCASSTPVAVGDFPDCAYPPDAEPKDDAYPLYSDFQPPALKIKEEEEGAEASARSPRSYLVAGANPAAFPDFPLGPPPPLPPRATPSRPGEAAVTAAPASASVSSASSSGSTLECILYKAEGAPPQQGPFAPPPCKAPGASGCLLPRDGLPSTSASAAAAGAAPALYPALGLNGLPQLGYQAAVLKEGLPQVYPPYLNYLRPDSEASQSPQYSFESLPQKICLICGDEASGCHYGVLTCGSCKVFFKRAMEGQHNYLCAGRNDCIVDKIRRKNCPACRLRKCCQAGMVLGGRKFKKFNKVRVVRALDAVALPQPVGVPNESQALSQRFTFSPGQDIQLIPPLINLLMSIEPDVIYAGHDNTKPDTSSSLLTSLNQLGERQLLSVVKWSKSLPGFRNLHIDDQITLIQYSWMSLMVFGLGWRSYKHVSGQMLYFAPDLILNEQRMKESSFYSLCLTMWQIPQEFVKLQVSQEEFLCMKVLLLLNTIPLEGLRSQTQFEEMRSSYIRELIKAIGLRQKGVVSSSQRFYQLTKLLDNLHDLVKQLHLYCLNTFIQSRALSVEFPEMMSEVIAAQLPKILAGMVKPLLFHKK
The conditions noted are these: known, potent, non-steroidal agonist; cited from earlier work.

For assay [1], the target named is T2, GR LBD (521-777) F602S polypeptide (human glucocorticoid receptor alpha ligand binding domain) (human, UniProt P04150 521-777).
T2 construct: Expressed in E. coli from plasmid 6xHisGS-TGR(521-777) F602S pET24; The fusion tag was cut off with thrombin before complex formation and crystallization; Residue numbers in the text follow full-length human GR; In the crystal, two LBD monomers form a symmetric dimer; also called GRα LBD; GR LBD F602S
T2 sequence: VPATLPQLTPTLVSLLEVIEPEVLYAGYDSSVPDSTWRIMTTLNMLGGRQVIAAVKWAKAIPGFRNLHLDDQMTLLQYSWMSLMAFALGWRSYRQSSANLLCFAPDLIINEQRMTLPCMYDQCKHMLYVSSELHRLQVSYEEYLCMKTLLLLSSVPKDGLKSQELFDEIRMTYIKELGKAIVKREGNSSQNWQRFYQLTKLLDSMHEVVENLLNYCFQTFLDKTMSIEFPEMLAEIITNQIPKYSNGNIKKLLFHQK
The assay can be described thus: X-ray co-crystal structure, 2.6 Å.

Consider `CC1CCC(c2ccc(Cl)c(C(F)(F)F)c2)=NN1S(=O)(=O)c1ccc(I)cc1` (centres unmarked) [RWJ-60130, 3-(4-chloro-3-trifluoromethylphenyl)-1-(4iodobenzensulfonyl)-6-methyl-1,4,5,6-tetrahydropyridazine], for which the “binding affinity for PR (in words)” value at PR was “high-affinity”.

B1: TIF2 peptide (residues 740-753 of the human TIF2 protein), KENALLRYLLDKDD (peptide)
peptide: KENALLRYLLDKDD
Regarding B1, in assay [1], the binding result was “binds”.
